Data reported in publication PMC3849035 (MedChemComm, 2011).

Experiments:
[1] = test system: VZV (OKA & 07/1); test: VZV plaque formation assay in HEL cells; type: cell-based, varicella-zoster virus; details: Human alphaherpesvirus 3, HEL, 120 h
[2] = test system: Parainfluenza-3 virus; test: Inhibition of virus-induced cytopathicity, parainfluenza-3 virus in Vero cells; type: cell-based
[3] = test system: Reovirus-1; test: Inhibition of virus-induced cytopathicity, Reovirus-1 in Vero cells; type: cell-based
[4] = test system: HEL cells; details: microscopically visible alteration of cell morphology
[5] = test system: HeLa cells; details: microscopically visible alteration of cell morphology
[6] = test system: Vero cells; details: microscopically visible alteration of cell morphology
[7] = test system: MDCK cells; details: microscopically visible alteration of cell morphology
[8] = test system: VSV; test: microbe, parasite or virus in culture; type: cell-based; details: Vesicular stomatitis virus, HeLa
[9] = test system: RSV; test: Inhibition of virus-induced cytopathicity, RSV in HeLa cells; type: cell-based; details: human respiratory syncytial virus
[10] = test system: HCMV and VZV; test: organism not typed; type: cell-based; details: read-out: EC50's against HCMV and VZV
[11] = test system: several tumor cell lines; test: Cytotoxic activity against tumor cell lines; type: cell-based
[12] = test system: HEL, HeLa, Vero, MDCK; details: four different cell lines (HEL, HeLa, Vero, MDCK)

Compound	EC50 [1]	EC50 [2]	EC50 [3]	MCC (minimal cytotoxic concentration) [4]	MCC (minimal cytotoxic concentration) [5]	MCC (minimal cytotoxic concentration) [6]	MCC (minimal cytotoxic concentration) [7]	EC50 [8]	EC50 [9]	EC50 [10]	cytotoxic activity against several tumor cell lines [11]	global cytotoxicity [12]
O=c1[nH]c(=O)n(C2C=CC(O)C2)cc1-c1cncs1 (stereo not shown) [1c, 1-[4′-Hydroxy-2′-cyclopenten-1′-yl]-5-(thiazol-5-yl)-uracil]	47 to 56 µM	> 100 µM	> 100 µM	≥100 µM	>100 µM	>100 µM	100 µM	–	–	–	–	–
O=c1[nH]c(=O)n(C2C=CC(O)C2)cc1-c1ccco1 (stereo not shown) [1b, 1-[4′-Hydroxy-2′-cyclopenten-1′-yl]-5-(furan-2-yl)-uracil]	–	> 100 µM	–	>100 µM	>100 µM	>100 µM	–	–	–	–	–	–
NC(=O)c1ncn([C@@H]2O[C@H](CO)[C@@H](O)[C@H]2O)n1 [Ribavirin, reference compound]	–	85 µM	> 250 µM	–	–	–	–	29 µM	10 µM	–	–	–
O=c1[nH]c(=O)n(C2C=CC(O)C2)cc1-c1cccs1 (stereo not shown) [1a, 1-[4′-Hydroxy-2′-cyclopenten-1′-yl]-5-(thiophene-2-yl)-uracil]	1.6 to 1.7 µM	> 4 µM	> 4 µM	≥4 µM	20 µM	20 µM	4 µM	–	–	1.6 to 2 µM	significant cytotoxic activity	4 to 20 µM
